From US20190367516A1 (Bayer Pharma Aktiengesellschaft, priority 2015, published 2019)
Read-outs that look alike come from different tables or passages of the source.

What was measured:
anaesthetized rats = assay: Effects on the heart rate in anaesthetized rats (B-9); assay type: in vivo, rat; conditions: i.v. infusion via jugular vein over 5 min, dose not given, in some cases means of several determinations
Experimental: B-9. Effects of the Test Substances on the Heart Rate in Anaesthetized Rats
Male rats of the strain (WI) WU Br from the breeder Charles River are anaesthetized initially with a 4-5% isoflurane inhalation for approx. 3 min. Subsequently, anaesthesia is maintained using a 1.5% isoflurane inhalation. For this purpose, the anaesthetized animals are fixed on a heated operating plate. By means of visual inspection and between toe reflex, the depth of anaesthesia is checked.
For the application of the test substance, an i.v. route into the jugular vein is used. A caudal to cranial skin incision is then made longitudinally and both the cervical musculature and the salivary glands are severed. The right common carotid artery is exposed and blood supply is arrested both proximally and distally. Using microinstrumentation, a TIP catheter (1.2 F) is introduced into the vessel in order to measure the arterial pressure and the heart rate.
Initially, both parameters are monitored for 10 min in the basal state without substance addition. The substances to be investigated are dissolved in suitable solvent mixtures and subsequently administered at various dosages to a group of animals in each case via the jugular vein by an infusion pump over 5 min. A solvent-treated group is used as control under the same experimental conditions. The arterial blood pressure and heart rate with substance addition is determined for 20 min. The data are registered with the PowerLab system (AD instruments) and evaluated using the LabChart program (AD instruments).
The values determined in this manner for the percentage decrease in heart rate for individual working examples are given in Table 4 below (in some cases as means of a plurality of independent individual determinations): […]

human M2 receptor [1] = target: T1, human M2 receptor (Homo sapiens, UniProt P08172)
T1 sequence (P08172 1-466): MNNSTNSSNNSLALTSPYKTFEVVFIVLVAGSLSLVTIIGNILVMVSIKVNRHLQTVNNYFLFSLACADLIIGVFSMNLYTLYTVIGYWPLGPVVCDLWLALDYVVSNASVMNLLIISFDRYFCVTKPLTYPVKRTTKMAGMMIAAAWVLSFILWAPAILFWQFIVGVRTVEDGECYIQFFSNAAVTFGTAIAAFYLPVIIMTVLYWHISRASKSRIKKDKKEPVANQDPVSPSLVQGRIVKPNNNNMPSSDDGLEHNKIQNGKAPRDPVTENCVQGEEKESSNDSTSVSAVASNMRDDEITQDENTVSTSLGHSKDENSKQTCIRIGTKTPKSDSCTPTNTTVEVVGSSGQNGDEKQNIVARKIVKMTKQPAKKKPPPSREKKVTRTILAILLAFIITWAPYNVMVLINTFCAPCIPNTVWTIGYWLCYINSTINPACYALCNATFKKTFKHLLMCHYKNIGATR

human M2 receptor [2] = target: T1, human M2 receptor; assay type: cell-based; conditions: α >1 = positive cooperativity
[3] = shift of acetylcholine dose-response curve (Allosteric EC50 shift)
[4] = Receptor activity EC50, M2-GIRK1/4 activation test, acetylcholine at EC20, allosteric potency, in some cases mean values from two or more determinations
[5] = shift in the acetylcholine dose-response curve (Allosteric EC50 shift, GraphPad PRISM)

| SMILES | EC50 (human M2 receptor [1]; Receptor activity EC50, allosteric potency at EC20 acetylcholine, M2-GIRK1/4 reporter cells, in some cases mean of two or more determinations) [µM] | Emax (human M2 receptor [1]; read-out: Efficiency, boosting of the acetylcholine effect at EC20 acetylcholine concentration, M2-GIRK1/4 reporter cells) [%] | EC50 (human M2 receptor [1]; [4]) [µM] | Cooperativity (alpha factor) (human M2 receptor [2]; [5]) | Reduction in heart rate (%) (anaesthetized rats) | Cooperativity (alpha factor) (human M2 receptor [2]; [3]) | Emax (human M2 receptor [1]; read-out: Efficiency) [%] |
| --- | --- | --- | --- | --- | --- | --- | --- |
| CC(NC(=O)c1cn(-c2c(F)cc(F)cc2F)c2nc(N3C[C@@H](O)CC3=O)ccc2c1=O)C(F)(F)C(F)(F)F (single isomer, unassigned) [Example 530] | 0.006 | 98.7 | – | – | 13 | 44 | – |
| CC(NC(=O)c1cn(-c2c(F)cc(F)cc2F)c2nc(N3C[C@@H](O)[C@H](O)C3)ccc2c1=O)C(F)(F)C(F)(F)F (single isomer, unassigned) [Example 550] | – | – | – | – | 13 | 34 | 100 |
| O=C(Nc1c(Cl)cccc1Cl)c1cn(-c2ccc(F)cc2F)c2nc(N3C[C@@H](O)CC3=O)ccc2c1=O [Example 201, N-(2,6-Dichlorophenyl)-1-(2,4-difluorophenyl)-7-[(4S)-4-hydroxy-2-oxopyrrolidin-1-yl]-4-oxo-1,4-dihydro-1,8-naphthyridine-3-carboxamide] | – | – | 0.039 | 39 | 6 | – | – |
| CC[C@@H](NC(=O)c1cn(-c2c(F)cccc2F)c2nc(N3C[C@@H](O)CC3=O)ccc2c1=O)C(F)(F)F [Example 275, 1-(2,6-Difluorophenyl)-7-[(4S)-4-hydroxy-2-oxopyrrolidin-1-yl]-4-oxo-N-[(2R)-1,1,1-trifluorobutan-2-yl]-1,4-dihydro-1,8-naphthyridine-3-carboxamide] | – | – | 0.018 | 38 | 9 | – | 92.8 |
| CC[C@@H](NC(=O)c1cn(-c2c(F)cc(F)cc2F)c2nc(N3C[C@@H](O)CC3=O)ccc2c1=O)C(F)(F)F [Example 325, 7-[(4S)-4-Hydroxy-2-oxopyrrolidin-1-yl]-4-oxo-N-[(2R)-1,1,1-trifluorobutan-2-yl]-1-(2,4,6-trifluorophenyl)-1,4-dihydro-1,8-naphthyridine-3-carboxamide] | – | – | 0.007 | 56 | 13 | – | 93 |

More lines, main results first:

| EC50 (human M2 receptor [1]; Receptor activity EC50, allosteric potency at EC20 acetylcholine, M2-GIRK1/4 reporter cells, in some cases mean of two or more determinations) [µM] | Emax (human M2 receptor [1]; read-out: Efficiency, boosting of the acetylcholine effect at EC20 acetylcholine concentration, M2-GIRK1/4 reporter cells) [%] | EC50 (human M2 receptor [1]; [4]) [µM] | Cooperativity (alpha factor) (human M2 receptor [2]; [5]) | SMILES | Reduction in heart rate (%) (anaesthetized rats) | Cooperativity (alpha factor) (human M2 receptor [2]; [3]) | Emax (human M2 receptor [1]; read-out: Efficiency) [%] |
| --- | --- | --- | --- | --- | --- | --- | --- |
| – | – | 0.023 | 25 | CC[C@@H](NC(=O)c1cn(-c2ccc(F)cc2F)c2nc(N3CC4C(C3)C4(F)F)ccc2c1=O)C(F)(F)F (stereo partly drawn) [Example 28, 7-(6,6-Difluoro-3-azabicyclo[3.1.0]hex-3-yl)-1-(2,4-difluorophenyl)-4-oxo-N-[(2R)-1,1,1-trifluorobutan-2-yl]-1,4-dihydro-1,8-naphthyridine-3-carboxamide] | 9 | – | – |
| – | – | 0.023 | 24 | CC[C@@H](NC(=O)c1cn(-c2ccc(F)cc2F)c2nc(N3CC[C@H](F)C3)ccc2c1=O)C(F)(F)F [Example 189, 1-(2,4-Difluorophenyl)-7-[(3S)-3-fluoropyrrolidin-1-yl]-4-oxo-N-[(2R)-1,1,1-trifluorobutan-2-yl]-1,4-dihydro-1,8-naphthyridine-3-carboxamide] | 7 | – | – |
| – | – | 0.04 | 43 | O=C(N[C@H](C1CC1)C(F)(F)F)c1cn(-c2ccc(F)cc2F)c2nc(N3C[C@@H](O)CC3=O)ccc2c1=O [Example 271, N-[(1R)-1-Cyclopropyl-2,2,2-trifluoroethyl]-1-(2,4-difluorophenyl)-7-[(4S)-4-hydroxy-2-oxopyrrolidin-1-yl]-4-oxo-1,4-dihydro-1,8-naphthyridine-3-carboxamide] | 8 | – | – |
| – | – | 0.041 | 29 | C[C@H](NC(=O)c1cn(-c2c(F)cc(F)cc2F)c2nc(N3C[C@@H](O)CC3=O)ccc2c1=O)C(F)(F)F [Example 330, 7-[(4S)-4-Hydroxy-2-oxopyrrolidin-1-yl]-4-oxo-1-(2,4,6-trifluorophenyl)-N-[(2S)-1,1,1-trifluoropropan-2-yl]-1,4-dihydro-1,8-naphthyridine-3-carboxamide] | 9 | – | – |
